In patent US10899753B2, “Inhibiting agents for Bruton's tyrosine kinase” (BIOGEN MA INC., priority 2018, dated 2021):

Columns and labels:
BTK [1] = molecular target: T1, BTK (Homo sapiens (Human), UniProt Q06187); assay: In Vitro BTK Kinase Assay: BTK-POLYGAT-LS ASSAY; assay type: biochemical; conditions: fluorescein-labeled polyGAT peptide 100 nM, BTK enzyme 0.25 nM, 30 minutes, TRF
In short: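 ATP […] and polyGAT peptide (100 nM), final concentrations, in Tris-HCl pH 7.5 kinase buffer with MgCl2, DTT, Triton X-100 and casein. Reaction run 30 min, stopped with EDTA, then 45 min at room temperature.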

BTK [2] = molecular target: T1, BTK; assay: In Vitro PD Assay in Human Whole Blood (pBTK assay); assay type: cell-based; conditions: human heparinized whole blood, 37° C. for 30 min, total BTK capture and phosphotyrosine detection (ECL)
In short: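 Heparinized human venous whole blood spiked with serially diluted compound (0.1% DMSO final) and incubated 30 min at 37° C. Lysed with protease/phosphatase inhibitors (high control +PPi, low control −PPi lacking phosphatase inhibitors); total BTK captured and phosphotyrosine detected.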

T1 sequence (Q06187 whole entry): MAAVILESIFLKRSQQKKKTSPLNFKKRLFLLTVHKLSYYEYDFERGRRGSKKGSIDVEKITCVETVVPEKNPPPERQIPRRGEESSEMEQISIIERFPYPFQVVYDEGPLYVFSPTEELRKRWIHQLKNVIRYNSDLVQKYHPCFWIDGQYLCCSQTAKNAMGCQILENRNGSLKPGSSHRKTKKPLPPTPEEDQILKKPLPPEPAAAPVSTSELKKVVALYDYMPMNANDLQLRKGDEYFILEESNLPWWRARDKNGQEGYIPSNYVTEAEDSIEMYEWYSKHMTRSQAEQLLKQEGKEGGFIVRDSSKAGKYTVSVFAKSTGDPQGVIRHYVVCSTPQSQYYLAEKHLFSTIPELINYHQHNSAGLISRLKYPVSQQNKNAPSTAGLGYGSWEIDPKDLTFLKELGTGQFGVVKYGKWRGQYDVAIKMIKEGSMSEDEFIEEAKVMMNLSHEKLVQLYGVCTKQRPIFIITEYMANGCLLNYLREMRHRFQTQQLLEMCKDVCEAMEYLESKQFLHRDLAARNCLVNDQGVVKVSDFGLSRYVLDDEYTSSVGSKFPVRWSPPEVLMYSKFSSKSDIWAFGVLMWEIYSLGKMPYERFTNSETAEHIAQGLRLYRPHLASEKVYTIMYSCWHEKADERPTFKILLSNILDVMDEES

SMILES | IC50 (BTK [1]) [nM] | IC50 (BTK [2]) [nM]
Cc1cc(-c2ncnc(Nc3cnn(C)c3)n2)ccc1CNC(=O)c1nc(C2(CF)CC2)no1 [Compound 48, 3-(1-(fluoromethyl)cyclopropyl)-N-(2-methyl-4-(4-((1-methyl-1H-pyrazol-4-yl)amino)-1,3,5-triazin-2-yl)benzyl)-1,2,4-oxadiazole-5-carboxamide] | < 1 | 100 to 500
Cc1cc(-c2ncnc(Nc3cnn(C)c3)n2)c(F)cc1CNC(=O)c1nc(C(C)(C)C)no1 [Compound 57, 3-(tert-butyl)-N-(5-fluoro-2-methyl-4-(4-((1-methyl-1H-pyrazol-4-yl)amino)-1,3,5-triazin-2-yl)benzyl)-1,2,4-oxadiazole-5-carboxamide] | < 1 | 100 to 500
Cn1ccc(Nc2ncnc(-c3ccc(CNC(=O)c4nc(C(C)(C)C)no4)c(Cl)c3F)n2)n1 [Compound 22, 3-(tert-butyl)-N-(2-chloro-3-fluoro-4-(4-((1-methyl-1H-pyrazol-3-yl)amino)-1,3,5-triazin-2-yl)benzyl)-1,2,4-oxadiazole-5-carboxamide] | < 1 | 500 to 10000
Cn1ccc(Nc2ncnc(-c3ccc(CNC(=O)c4noc(C(C)(C)C)n4)c(Cl)c3F)n2)n1 [Compound 21, 5-(tert-butyl)-N-(2-chloro-3-fluoro-4-(4-((1-methyl-1H-pyrazol-3-yl)amino)-1,3,5-triazin-2-yl)benzyl)-1,2,4-oxadiazole-3-carboxamide] | < 1 | 100 to 500
Cc1cc(-c2ncnc(Nc3cnn(C)c3)n2)ccc1CNC(=O)c1cnn(C(C)(C)C)c1 [Compound 37, 1-(tert-butyl)-N-(2-methyl-4-(4-((1-methyl-1H-pyrazol-4-yl)amino)-1,3,5-triazin-2-yl)benzyl)-1H-pyrazole-4-carboxamide] | < 1 | 100 to 500
Cc1cc(-c2ncnc(Nc3cnn(C)c3)n2)ccc1CNC(=O)c1nnn(C(C)(C)C)n1 [Compound 39, 2-(tert-butyl)-N-(2-methyl-4-(4-((1-methyl-1H-pyrazol-4-yl)amino)-1,3,5-triazin-2-yl)benzyl)-2H-tetrazole-5-carboxamide] | < 1 | < 100
Cc1c(CNC(=O)c2noc(C(C)(C)C)n2)ccc(-c2ncnc(Nc3ccn(C)n3)n2)c1F [Compound 9, 5-(tert-butyl)-N-(3-fluoro-2-methyl-4-(4-((1-methyl-1H-pyrazol-3-yl)amino)-1,3,5-triazin-2-yl)benzyl)-1,2,4-oxadiazole-3-carboxamide] | < 1 | 100 to 500
C[C@@H](NC(=O)c1noc(C(C)(C)C)n1)c1ccc(-c2ncnc(Nc3ccn(C)n3)n2)c(F)c1C(F)F [Compound 82, (R)-5-(tert-butyl)-N-(1-(2-(difluoromethyl)-3-fluoro-4-(4-((1-methyl-1H-pyrazol-3-yl)amino)-1,3,5-triazin-2-yl)phenyl)ethyl)-1,2,4-oxadiazole-3-carboxamide] | 1 to 10 | 500 to 10000
Cn1cc(Nc2ncnc(-c3ccc4c(c3)CN(CC(F)(F)F)CC[C@H]4NC(=O)c3noc(C(C)(C)C)n3)n2)cn1 [Compound 90, (R)-5-(tert-butyl)-N-(8-(4-((1-methyl-1H-pyrazol-4-yl)amino)-1,3,5-triazin-2-yl)-2-(2,2,2-trifluoroethyl)-2,3,4,5-tetrahydro-1H-benzo[c]azepin-5-yl)-1,2,4-oxadiazole-3-carboxamide] | < 1 | < 100
Cn1ccc(Nc2ncnc(-c3ccc(CNC(=O)c4noc(C(C)(C)CF)n4)c(C4CC4)c3)n2)n1 [Compound 54, N-(2-cyclopropyl-4-(4-((1-methyl-1H-pyrazol-3-yl)amino)-1,3,5-triazin-2-yl)benzyl)-5-(1-fluoro-2-methylpropan-2-yl)-1,2,4-oxadiazole-3-carboxamide] | < 1 | 100 to 500
